Laboratory results taken from patent US20180318199A1, “Pharmaceutical Composition Having Anti-Aging Properties against High-Glucose” (TAIWAN LEADER BIOTECH CORP., priority 2017, published 2018).

Tests used:
Type in all cases: cell-based, human
[1] = test system: SIRT-1, SIRT-3 and SIRT-6; test: RT-PCR/Q-PCR of SIRT genes in HNDFs; details: 72 h
Text: As shown in the figures, to determine whether ANM regulates HNDF senescence through a SIRT-1-mediated pathway, expression levels of SIRT genes SIRT-1, SIRT-3 and SIRT-6 are is examined.
Total RNA is extracted and subjected to Q-PCR analysis to monitor SIRT-1, SIRT-3 and SIRT-6 expression. Relative mRNA levels are normalized by β-actin mRNA. Previous studies have shown that exposure of endothelial cells to HG rapidly decreases levels of expression of SIRT genes.
Total RNA is extracted from cultured HNDFs using Trizol Reagent (Thermo Fisher Scientific). Q-PCR analysis is performed using Applied Biosystems detection instruments and software. Forward and reverse primers (10 μM), and the working solution SYBR green, is used as a PCR master mix, under the following conditions: 96° C. for 3 minutes followed by 40 cycles at 96° C. for 1 minute, 50° C. for 30 seconds and 72° C. for 90 seconds. GAPDH is used as an internal standard to control for variability in amplification because of differences in starting mRNA concentrations. The copy number of each transcript is calculated as the relative copy number normalized by GAPDH copy number.

SIRT-1, SIRT-3, SIRT-6 = test: Western blot of SIRT proteins and phos-SIRT-1 in HNDFs; details: 72 h
Protocol: Total cell lysate is extracted and subjected to western blot analysis to monitor SIRT-1, SIRT-3, SIRT-6 protein levels.
The protein expression levels of SIRT-1, SIRT-6, p21^CIP1, SMP30, p53, FoxO and acetylation of p53 and FoxO1 are determined by western blot analysis.
To further understand the regulation of SIRT-1 by ANM, the effect of ANM on SIRT-1 activation and protein stability is examined under hyperglycemic conditions. In FIG. 7I, cells are incubated with JNK/SAPK or p38 MAPK inhibitors SP600125 (SP, 30 μM) and SB203580 (SB, 30 μM) in the presence of HG for 72 h. The protein expression levels of phos-SIRT-1 and SIRT-1 are determined by western blotting. Results are expressed as mean±S.E.M of three independent experiments. Statistical significance is set at ^ϕP<0.05 as compared to NG vs. HG and *P<0.05 as compared to HG vs. samples. Previous studies have shown that hyperphosphorylation of SIRT-1 at serine 47 (Ser47) is correlated with enhanced endothelial senescence. In addition, persistent activation of JNK1/2 by multiple factors including hyperglycemia induces extensive SIRT-1 proteasome degradation followed by phosphorylation at Ser47. […] Therefore, it is hypothesized that ANM-mediated suppression of JNK1/2 and p38 MAPK activation may have a functional role in the stability of SIRT-1 protein.
Cells are lysed by either RIPA lysis buffer or nuclear and cytoplasmic extraction reagents (Thermo Fisher Scientific). Protein concentrations are determined by Bio-Rad protein assay reagent (Bio-Rad Laboratories, Hercules, Calif.). Equal amounts of protein samples (60 μg) are separated by 7-12% SDS-PAGE and the separated proteins are transferred onto polyvinylidene […] (PVDC) membrane overnight. The transferred protein membranes are blocked with 5% non-fat dried milk for 30 min, followed by incubation with specific primary antibodies overnight, and either horseradish peroxidase-conjugated goat anti-rabbit or anti-mouse antibodies for 2 h. The blots are detected using VL Chemi-Smart 3000 (Viogene Biotek, Sunnyvale, Calif.) with the enhanced chemiluminescence (ECL) western blotting reagent (Millipore, Billerica, Mass.).

HUVECs [2] = test: MTT cell viability in HUVECs; details: 48 h
Protocol: (§1) Please refer to FIG. 9A˜FIG. 9H, which are views showing HG-induced senescence prevented by ANM in human umbilical vein endothelial cells (HUVECs). As shown in the figures, to further delineate the protective effects of ANM on another cell system, experiments are designed to investigate the protective effect of ANM on HUVECs incubated in media containing either NG or HG alone or with ANM for 48 h. Cell viability is measured by MTT assay. […] Cell viability is determined by MTT assay. Percentage of viable cells are normalized with control cells (NG). […] In addition, in FIG. 9B, cellular senescence is determined by SA-β-gal activity assay. […] In addition, in FIG. 9C and FIG. 9D, total cell lysate is extracted and senescence-associated marker proteins including p16^INK4A, p21^CIP1 total and acetylated p53 and FoxO1 are measured by western blot analysis.
Cell viability is assessed by MTT colorimetric assay. Briefly, HNDFs (2×10^4cells/well) or HUVECs (5×10^4 cells/well) are seeded in a 24-well culture plate. […] The MTT formazan crystals are dissolved in 400 μL of DMSO and the samples are measured at 570 nm (A540) using an ELISA microplate reader (Bio-Tek Instruments, Winooski, Vt.). The percentage of cell viability (%) is calculated as (A570 of treated cells/A570 of untreated cells)×100.

HUVECs [3] = test: SA-β-gal senescence assay in HUVECs; details: ANM 10 μM + HG 30 mM, 48 h; HG alone 6.38-fold
Protocol: as §1
Senescence-associated β-galactosidase (SA-β-gal) activity is determined in formaldehyde-fixed histochemical staining kit according to the manufacturer's instructions (Cell Signaling Technology, Danvers, Calif.). Briefly, cells are grown in 6-well plates at a density of 5×10^4 cells/well, and incubated with HG or test samples for 48 h (HUVECs) or 72 h (HNDFs). […]

HUVECs [4] = test: Intracellular ROS (DCFH-DA assay) in HUVECs; details: ANM 10 μM + HG 30 mM, 48 h; HG alone 14.3-fold
Protocol: The intracellular ROS level is quantified by utilizing DCFH-DA assay. […] However, treatment of HUVECs with ANM resulted reduced ROS levels (6.1-fold), compared with HUVECs in HG that are not treated with ANM. In addition, in FIG. 9G, western blot analysis is performed to determine the protein expression levels of HO-1 and NQO-1.

C=C(CCC(C)C1CCC2C3=C(C(=O)C(O)C21C)C1(C)CCC(O)C(C)C1CC3)C(C)C(=O)O (stereo not drawn) [ANM, antcin M]
SIRT-1 and SIRT-6 mRNA, HG-induced depletion ([1]; ANM 10 μM + HG, Q-PCR): rescues
SIRT-1, SIRT-3 and SIRT-6 levels (RT-PCR) ([1]; ANM 10 μM, no HG, vs control): significantly increased
HG-induced reduction in SIRT-1, SIRT-3 and SIRT-6 proteins (SIRT-1, SIRT-3, SIRT-6; ANM 10 μM + HG 30 mM): significantly prevented
SIRT-1 and SIRT-6 expression, control siRNA cells (SIRT-1, SIRT-3, SIRT-6; ANM 10 μM + HG): significantly increases
HG-induced SIRT-1 phosphorylation at Ser47 (SIRT-1, SIRT-3, SIRT-6; ANM or RES + HG): significantly attenuates
number of viable HUVECs under HG (HUVECs [2]; ANM 10 μM or RES 5 μM + HG 30 mM, HG alone 35.01%): 79.78%
cell viability of HUVECs, compound alone (HUVECs [2]; ANM 10 μM or RES 5 μM): does not affect cell viability
SA-β-gal staining in HUVECs (HUVECs [3]): 1.36 fold
intracellular ROS levels in HUVECs (HUVECs [4]): 6.1 fold
